From US20130203805A1, “Methods for treating anemia using inhibitors of hypoxia-inducible factor (HIF) hydroxylase” (FIBROGEN, INC., priority 2001, published 2013) come the findings set out here.

Structures are written as SMILES.

The subject of assay [1] is erythropoietin transcript. The assay is described as follows: Erythropoietin transcript in tissues by Murine genome U74AV2 array (Example 7). The settings on record: mice. Type of assay: in vivo, male Swiss Webster mice. As for the experimental part: Twenty-five male Swiss Webster mice (35-38 g) were obtained from Simonson, Inc., and treated by oral gavage […] for 2.5 days (5 doses) with a 4 ml/kg volume of either 0.5% carboxymethyl cellulose (CMC; Sigma-Aldrich, St. Louis Mo.) (0 mg/kg/day), compound C at 30 or 100 mg/kg/day […], or blood was collected daily from animals as described above to induce anemia. Blood samples were collected and kidney, liver, brain, lung, heart, and skeletal muscle tissues were harvested and processed as for Example 2, Experiment I (supra).
RNA isolation was carried out using the following protocol. A 50 mg section of each organ was diced, 875 μl of RLT buffer (RNEASY kit; Qiagen Inc., Valencia Calif.) was added, and the pieces were homogenized for about 20 seconds using a rotor-stator POLYTRON homogenizer (Kinernatica, Inc., Cincinnati Ohio). The homogenate was micro-centrifuged for 3 minutes to pellet insoluble material, the supernatant was transferred to a new tube and RNA was isolated using an RNEASY kit (Qiagen) according to the manufacturer's instructions. The RNA was eluted into 80 μL of water and quantitated with RIBOGREEN reagent (Molecular Probes, Eugene Oreg.). Genomic DNA was then removed from the RNA using a DNA-FREE kit (Ambion Inc, Austin Tex.) according to the manufacturer's instructions. The absorbance at 260 and 280 nm was measured to determine RNA purity and concentration.
RNA was precipitated in 0.3 M sodium acetate (pH 5.2), 50 ng/ml glycogen, and 2.5 volumes of ethanol for one hour at −20° C. Samples were centrifuged and pellets were washed with cold 80% ethanol, dried, and resuspend in water. Double stranded cDNA was synthesized using a T7-(dT)24 first strand primer (Affymetrix, Inc., Santa. Clara Calif.) and the […] CHOICE system (Invitrogen) according to the manufacturer's instructions. The final cDNA was extracted with an equal volume of 25:24:1 phenol:chloroform:isoamyl alcohol using a PHASE LOCK GEL insert (Brinkman, Inc., Westbury N.Y.). The aqueous phase was collected and cDNA was precipitated using 0.5 volumes of 7.5 M ammonium acetate and 2.5 volumes of ethanol. Alternatively, cDNA was purified using the […] sample cleanup module (Affymetrix) according to the manufacturer's instructions. […]
Hybridization cocktail was prepared by bringing 5 μg probe to 100 μl in 1× hybridization buffer (100 mM MES, 1 M [Na^+], 20 mM EDTA, 0.01% Tween 20), 100 μg/ml herring sperm DNA, 500 μg/ml acetylated BSA, 0.03 nM control oligo B2 (Affymetrix), and 1× […] eukaryotic hybridization control (Affymetrix). […] Arrays were analyzed using a […] scanner (Affymetrix) and Microarray Suite software (Affymetrix). […]

A short description of assay [2]: Hematocrit (Example 2, Experiment I). The settings on record: mice; 200 mg/kg/day oral gavage 2.5 days; 4 h after final dose; relative to untreated controls; FIG. 2C. Type of assay: in vivo, Swiss Webster male mice. As for the experimental part: Twelve Swiss Webster male mice (30-32 g) were obtained from Simonsen, Inc. (Gilroy Calif.), and treated by oral gavage two times per day for 2.5 days (5 doses) with a 4 ml/kg volume of either 0.5% carboxymethyl cellulose (CMC; Sigma-Aldrich, St. Louis Mo.) (0 mg/kg/day) or 2.5% Compound C (25 mg/ml in 0.5% CMC) (200 mg/kg/day). Four hours after the final dose, animals were anesthetized with isoflurane and two blood samples were collected from the abdominal vein. One blood sample was collected into a MICROTAINER serum separator tube (Becton-Dickinson, Franklin Lakes N.J.), and incubated at room temperature for 30 minutes, centrifuged at 8,000 rpm at 4° C. for 10 minutes. The serum fraction was then processed and analyzed for erythropoietin (EPO) expression using a QUANTIKINE immunoassay (R&D Systems) according to the manufacturer's instructions. The second blood sample was collected into a MICROTAINER EDTA-2K tube (Becton-Dickinson) for hematocrit analysis. Hematocrit was measured by drawing EDTA-blood into a 75 mm×1.1-12 mm I.D. capillary tube (Chase Scientific Glass, Inc., Rockwood Tenn.) to approximately ¾ length. One end of the tube was sealed with CRITOSEAL sealant (Sherwood Medical Company) and the tube was centrifuged in a J-503M MICROHEMATOCRIT centrifuge (Jorgensen Laboratories, Inc., Loveland Colo.) at 12,000 rpm for 5 minutes. Hematocrit was read against a reader card. […]

Assay [3] is classed as in vivo, Sprague Dawley male rats. Here is the method:
The ability of a compound of the invention to treat anemia associated with post-ischemic acute renal failure was assayed using a procedure described by Vaziri et al. (1994, Am J Physiol 266(3 Pt 2):[…]-6.) Fifteen Sprague Dawley male rats (280-300 g) were obtained from Charles River Laboratories. On day 0, rats were treated by intraperitoneal injection with a single dose of saline (control; n=3) at 8 ml/kg, or cisplatin (CP; Bedford Laboratories, Bedford Ohio) at either 7 mg/kg (7 ml/kg; n=6) or 10 mg/kg (10 ml/kg; n=6). Blood samples (0.2 ml) were collected on days 5, 9, and 16 as follows. […] Blood samples were processed for hematocrit as described above to determine the degree of anemia produced in each animal. […] Blood samples (0.5 ml) were collected as described above immediately prior to treatment and 4 days after treatment initiation. Blood samples were analyzed for CBC and reticulocyte counts as described above. On day 9 after initiation of oral treatment, a blood sample (0.1 ml) was collected and processed for hematocrit as described above.

[4] abbreviates: 30 or 100 mg/kg/day oral gavage for 4 days, FIG. 6.

In the case of `O=C(O)CNC(=O)c1nc(Cl)c2ccccc2c1O` [Compound C, [(1-chloro-4-hydroxy-isoquinoline-3-carbonyl)-amino]-acetic acid], in assay [1] (setting [4]), the “erythropoietin transcript, brain” value is “dose-dependent increase”; the “erythropoietin transcript, kidney” value is “dose-dependent increase”; the “erythropoietin transcript, liver” value is given as “dose-dependent increase”. In assay [1] (brain, kidney, liver, 30 or 100 mg/kg/day oral gavage), the “level of expression versus transcription seen with bleed-induced anemia in the same tissue” value was “equivalent to or exceeded”. Besides, the hematocrit result in assay [2] was “significantly increased”. Besides, the “hematocrit levels versus normal control” value in assay [3] (rats initially exposed to 7 mg/kg CP, 2 ml/kg of 2.5% compound C oral once daily 5 days, day 9, FIG. 5A) is “at or above normal control values”. Also, the “number of circulating reticulocytes” value in assay [3] (rats, CP-treated, 2 ml/kg of 2.5% compound C oral once daily 5 days, FIG. 5B) is on record as “also increased”. Also, the “hematocrit versus non-treated counterparts” value in assay [3] (rats, CP-treated, 2 ml/kg of 2.5% compound C oral once daily 5 days, day 9 post-treatment, FIG. 5A) is listed as “significantly higher”. For the same molecule, in assay [3] (rats, 2 ml/kg of 2.5% compound C oral once daily 5 days from day 19, 4 days after initiating treatment, FIG. 5A), the “hematocrit in CP-treated animals” value is listed as “increased”.
